Measured values reported in patent US12295365B2, “Composition including an antimicrobial boosting agent including a sultaine and methods of increasing the antimicrobial effectiveness of a composition” (KIMBERLY-CLARK WORLDWIDE, INC., priority 2018, dated 2025).
Counter-ions that a name gives are not always drawn.

Tested on: B. cepacia (ATCC 25416)
Assay: Minimum Effective Concentration (MEC) Test Method
Type: cell-based, Burkholderia cepacia
Settings: boosting agent (the label) at 5 mmol/L; 24 hours at room temperature
Protocol: Initial testing was conducted to screen a variety of surfactants in researching for potential antimicrobial boosting agents. The initial testing followed the methodology as described in the Minimum Effective Concentration (“MEC”) Test Method described in the Test Methods section herein. To summarize, the MEC testing paired a variety of potential antimicrobial boosting agents with a variety of known antimicrobial agents to determine the MEC of the respective antimicrobial agent that must be used to provide an effective antimicrobial result, as described in further detail in the Test Methods section. The more positive the boosting characteristics of an antimicrobial boosting agent, then the lower the MEC that would be required for the paired antimicrobial agent. It is to be noted that the molarities listed in Table 1 are approximate values that were calculated based on the estimated activities of the ingredients and the molecular weights of the active ingredients. In instances where an exact activity was not available for an ingredient blend, the ingredient blend activity was estimated as the average of the upper and lower limits of the specification provided by the manufacturer of such blend. In instances where an exact molecular weight could not be calculated (for example, in compounds derived from a natural oil like coconut oil), the molecular weight of the active was estimated based on a weighted average of the molecular weights of the constituent species.
The Minimum Effective Concentration Test Method discussed herein began by adding B. cepacia (ATCC 25416) culture at a final concentration of approximately 5×10^6 CFU/mL to the composition to be challenged. The challenged composition was then allowed to incubate at room temperature for 24 hours. After 24 hours, a preservative neutralizing broth was added to the mixture and measurements were subsequently taken to determine the concentration of B. cepacia still remaining after exposure to the test composition.
The Minimum Effective Concentration was determined by completing the process described above on a series of compositions with the same concentration of antimicrobial boosting agent, but with different concentrations of antimicrobial agent. The Minimum Effective Concentration of antimicrobial agent for any given value of antimicrobial boosting agent was defined as the minimum concentration of antimicrobial agent required to reduce the concentration of B. cepacia to a level below the detection threshold for the test method, which was approximately 100 CFU/mL. In instances where multiple rounds of Minimum Effective Concentration testing were completed, the value reported is the mean of the Minimum Effective Concentration values generated by each individual series of tests.

Question: With CCCCCCCCCCCCCCCC[N+](C)(C)CC(=O)[O-] [Cetyl Betaine] as the compound, how does the “MEC of Lactic Acid (Purac FCC 88) paired with the potential boosting agent” value (shortened to “MEC of Lactic Acid (Purac FCC 88) paired”) read?
Answer: The value was 40 mmol/L.

Question: Which “MEC of Lactic Acid (Purac FCC 88) paired” value does the source give for CCCCCCCCCCCC(=O)OC(C)C(=O)OC(C)C(=O)[O-].[Na+] (stereo not shown) [Sodium Lauroyl Lactylate] here?
Answer: Its value is 30 mmol/L.

Question: Which “MEC of Hydroxyacetophenone (SymSave H) paired with the potential boosting agent” value does the source give for CCCCCCCCCCCC[N+](C)(C)CCCS(=O)(=O)[O-] [Lauryl Sultaine, N-Dodecyl-N,N-dimethyl-3-ammonio-1-propanesulfonate] here?
Answer: The value was 10 mmol/L.

Question: And the “MEC of Lactic Acid (Purac FCC 88) paired” value?
Answer: The value was 20 mmol/L.

Question: For CCCCCCCCCCCCCC[N+](C)(C)CCCS(=O)(=O)[O-] [Myristyl Sultaine, 3-(N,N-Dimethylmyristylammonio)propanesulfonate], which “MEC of Lactic Acid (Purac FCC 88) paired” value is on record?
Answer: Its value is 40 mmol/L.

Question: Which “MEC of Caprylhydroxamic Acid (Zeastat) paired with the potential boosting agent” value does the source give for CCCCCCCCCCCC[N+](C)(C)CC(O)CS(=O)(=O)[O-] (stereo not shown) [Lauryl Hydroxysultaine] here?
Answer: The value was under 2 mmol/L.

Question: What about the “MEC of Hydroxyacetophenone (SymSave H) paired with the potential boosting agent” value of the same compound?
Answer: The value was under 5 mmol/L.

Question: What about the “MEC of Lactic Acid (Purac FCC 88) paired” value of the same compound?
Answer: Its value is 17 mmol/L.

Question: What about the “MEC of Sodium Benzoate paired with the potential boosting agent” value of the same compound?
Answer: Its value is under 1 mmol/L.

Question: With “Sodium Laurylglucosides Hydroxypropylsulfonate” as the compound, how does the “MEC of Lactic Acid (Purac FCC 88) paired” value read?
Answer: The value was over 50 mmol/L.

Question: How did the “MEC of Hydroxyacetophenone (SymSave H) paired with the potential boosting agent” value turn out when CCCCCCCCCC[N+](C)(C)CCCS(=O)(=O)[O-] [Decyl Sultaine, 3-(Decyldimethylammonio)-propanesulfonate inner salt] was run?
Answer: Its value is 10 mmol/L.

Question: What about the “MEC of Lactic Acid (Purac FCC 88) paired” value of the same compound?
Answer: Its value is 30 mmol/L.

Question: Which “MEC of Lactic Acid (Purac FCC 88) paired” value does the source give for CCCCCCCC[N+](C)(C)CCCS(=O)(=O)[O-] [Caprylyl Sultaine, 3-(N,N-Dimethyloctylammonio)propanesulfonate inner salt] here?
Answer: The value was 40 mmol/L.

Question: How did the “MEC of Lactic Acid (Purac FCC 88) paired” value turn out when Laureth-3 Phosphate was run?
Answer: Its value is 40 mmol/L.

Question: Lauramidopropyl Hydroxysultaine was tested. Which “MEC of Lactic Acid (Purac FCC 88) paired” value did it give?
Answer: The value was 30 mmol/L.

Question: Which results are given for Lauryl Glucoside?
Answer: MEC of Lactic Acid (Purac FCC 88) paired with the potential boosting agent: >30 mmol/L; MEC of Sodium Benzoate paired with the potential boosting agent: 10 mmol/L

Question: Which “MEC of Lactic Acid (Purac FCC 88) paired” value does the source give for CCCCCCCC[N+](C)(C)[O-] [Octyldimethylamine Oxide] here?
Answer: The value was 40 mmol/L.

Question: For C[N+](C)(CCO)CC(O)C[N+](C)(C)CCO.[Cl-].[Cl-] [Hydroxypropyl Bis-Hydroxyethyldimonium Chloride], which “MEC of Lactic Acid (Purac FCC 88) paired” value is on record?
Answer: The value was 50 mmol/L.

Question: C[N+](C)(CCCS(=O)(=O)[O-])Cc1ccccc1 [Benzyl Sultaine, 3-(Benzyldimethylammonio)propanesulfonate] was tested. Which “MEC of Lactic Acid (Purac FCC 88) paired” value did it give?
Answer: Its value is 40 mmol/L.

Question: CCCCCCCC[N+](C)(C)CC(=O)[O-] [Octyl Betaine] was tested. Which “MEC of Lactic Acid (Purac FCC 88) paired” value did it give?
Answer: Its value is 40 mmol/L.

Same assay, conditions: no boosting agent; 24 hours at room temperature

Question: For CCCCCCCC(=O)NO [Caprylhydroxamic Acid], which “MEC of Caprylhydroxamic Acid (Zeastat)” value is on record?
Answer: The value was 10 mmol/L.

Question: For O=C(CO)c1ccccc1 [Hydroxyacetophenone], which “MEC of Hydroxyacetophenone (SymSave H)” value is on record?
Answer: The value was 20 mmol/L.

Question: For CC(O)C(=O)O (stereo not shown) [Lactic Acid], which “MEC of Lactic Acid (Purac FCC 88)” value is on record?
Answer: Its value is 60 mmol/L.

Question: For O=C([O-])c1ccccc1.[Na+] [Sodium Benzoate], which “MEC of Sodium Benzoate” value is on record?
Answer: The value was 7.5 mmol/L.
